# Source: the supplement of paper PMC10307832
# Legend:
# Experiment in all cases: relative viability (nuclei count vs DMSO), 5 days (fraction); higher = more cells survive
# [1] = system: NCI-H520
# How it was run: (§1)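 The day after seeding in 1536-well plates, lung cancer cell lines were treated by pin tool with a single drug, or with a fixed anchor-drug dose together with five library-drug doses (not always all listed) in √10 steps. After 5 days, a combined fix-and-stain solution (final 0.05% Triton X-100, 1% formaldehyde, 1 ug/ml Hoechst) was added. Nuclei counted on 4× images gave relative viability as treated counts over vehicle counts, reported as the median of duplicate plates.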
# [2] = system: NCI-H1755
# How it was run: as §1
# [3] = system: PC-3 [JPC-3]
# How it was run: as §1
# [4] = system: LK-2
# How it was run: as §1
# [5] = system: NCI-H596
# How it was run: as §1
# [6] = system: ChaGo-K-1
# How it was run: as §1
# [7] = system: EKVX
# How it was run: as §1
# [8] = system: NCI-H441
# How it was run: as §1
# [9] = system: A-427
# How it was run: as §1
# [10] = system: COR-L 105
# How it was run: as §1
# [11] = system: SK-MES-1
# How it was run: as §1
# [12] = system: H3255
# How it was run: as §1
# [13] = system: NCI-H23
# How it was run: as §1
# [14] = system: NCI-H2170
# How it was run: as §1
# [15] = system: SW 900
# How it was run: as §1
# [16] = system: LOU-NH91
# How it was run: as §1
# [17] = system: NCI-H1975
# How it was run: as §1
# [18] = system: HCC-366
# How it was run: as §1
# [19] = system: NCI-H1734
# How it was run: as §1
# [20] = system: EMC-BAC-2
# How it was run: as §1
# [21] = system: NCI-H1666
# How it was run: as §1
smiles,measurement,setting,value
Nc1ccn([C@@H]2O[C@H](CO)[C@@H](O)[C@@H]2O)c(=O)n1 [Cytarabine] + Cc1cc(Nc2cc(N3CCN(C)CC3)nc(Sc3ccc(NC(=O)C4CC4)cc3)n2)n[nH]1 [Tozasertib] (partner 0.1 µM),relative viability,[1]; first compound 0.005 µM,0.416
same,relative viability,[1]; first compound 0.01581 µM,0.463
same,relative viability,[1]; first compound 0.05 µM,0.478
same,relative viability,[1]; first compound 0.1581 µM,0.415
same,relative viability,[1]; first compound 0.5 µM,0.494
same,relative viability,[2]; first compound 0.005 µM,0.492
same,relative viability,[2]; first compound 0.01581 µM,0.452
same,relative viability,[2]; first compound 0.05 µM,0.421
same,relative viability,[2]; first compound 0.1581 µM,0.273
same,relative viability,[2]; first compound 0.5 µM,0.344
same,relative viability,[3]; first compound 0.005 µM,0.726
same,relative viability,[3]; first compound 0.01581 µM,0.826
same,relative viability,[3]; first compound 0.05 µM,0.966
same,relative viability,[3]; first compound 0.1581 µM,0.704
same,relative viability,[3]; first compound 0.5 µM,0.665
same,relative viability,[4]; first compound 0.005 µM,0.213
same,relative viability,[4]; first compound 0.01581 µM,0.185
same,relative viability,[4]; first compound 0.05 µM,0.168
same,relative viability,[4]; first compound 0.1581 µM,0.157
same,relative viability,[4]; first compound 0.5 µM,0.215
same,relative viability,[5]; first compound 0.005 µM,1.03
same,relative viability,[5]; first compound 0.01581 µM,0.945
same,relative viability,[5]; first compound 0.05 µM,0.712
same,relative viability,[5]; first compound 0.1581 µM,0.589
same,relative viability,[5]; first compound 0.5 µM,0.469
same,relative viability,[6]; first compound 0.005 µM,0.188
same,relative viability,[6]; first compound 0.01581 µM,0.207
same,relative viability,[6]; first compound 0.05 µM,0.208
same,relative viability,[6]; first compound 0.1581 µM,0.16
same,relative viability,[6]; first compound 0.5 µM,0.149
same,relative viability,[7]; first compound 0.005 µM,0.326
same,relative viability,[7]; first compound 0.01581 µM,0.35
same,relative viability,[7]; first compound 0.05 µM,0.333
same,relative viability,[7]; first compound 0.1581 µM,0.272
same,relative viability,[7]; first compound 0.5 µM,0.19
same,relative viability,[8]; first compound 0.005 µM,0.557
same,relative viability,[8]; first compound 0.01581 µM,0.637
same,relative viability,[8]; first compound 0.05 µM,0.597
same,relative viability,[8]; first compound 0.1581 µM,0.389
same,relative viability,[8]; first compound 0.5 µM,0.323
same,relative viability,[9]; first compound 0.005 µM,0.232
same,relative viability,[9]; first compound 0.01581 µM,0.212
same,relative viability,[9]; first compound 0.05 µM,0.163
same,relative viability,[9]; first compound 0.1581 µM,0.161
same,relative viability,[9]; first compound 0.5 µM,0.149
same,relative viability,[10]; first compound 0.005 µM,0.305
same,relative viability,[10]; first compound 0.01581 µM,0.317
same,relative viability,[10]; first compound 0.05 µM,0.306
same,relative viability,[10]; first compound 0.1581 µM,0.319
same,relative viability,[10]; first compound 0.5 µM,0.334
same,relative viability,[11]; first compound 0.005 µM,0.583
same,relative viability,[11]; first compound 0.01581 µM,0.483
same,relative viability,[11]; first compound 0.05 µM,0.28
same,relative viability,[11]; first compound 0.1581 µM,0.179
same,relative viability,[11]; first compound 0.5 µM,0.159
same,relative viability,[12]; first compound 0.005 µM,0.586
same,relative viability,[12]; first compound 0.01581 µM,0.644
same,relative viability,[12]; first compound 0.05 µM,0.786
same,relative viability,[12]; first compound 0.1581 µM,0.604
same,relative viability,[12]; first compound 0.5 µM,0.488
same,relative viability,[13]; first compound 0.005 µM,0.362
same,relative viability,[13]; first compound 0.01581 µM,0.32
same,relative viability,[13]; first compound 0.05 µM,0.243
same,relative viability,[13]; first compound 0.1581 µM,0.55
same,relative viability,[13]; first compound 0.5 µM,0.244
same,relative viability,[14]; first compound 0.005 µM,0.605
same,relative viability,[14]; first compound 0.01581 µM,0.5
same,relative viability,[14]; first compound 0.05 µM,0.409
same,relative viability,[14]; first compound 0.1581 µM,0.386
same,relative viability,[14]; first compound 0.5 µM,0.26
same,relative viability,[15]; first compound 0.005 µM,0.555
same,relative viability,[15]; first compound 0.01581 µM,0.402
same,relative viability,[15]; first compound 0.05 µM,0.287
same,relative viability,[15]; first compound 0.1581 µM,0.233
same,relative viability,[15]; first compound 0.5 µM,0.134
same,relative viability,[16]; first compound 0.005 µM,0.555
same,relative viability,[16]; first compound 0.01581 µM,0.53
same,relative viability,[16]; first compound 0.05 µM,0.672
same,relative viability,[16]; first compound 0.1581 µM,0.411
same,relative viability,[16]; first compound 0.5 µM,0.514
same,relative viability,[17]; first compound 0.005 µM,0.681
same,relative viability,[17]; first compound 0.01581 µM,0.799
same,relative viability,[17]; first compound 0.05 µM,0.728
same,relative viability,[17]; first compound 0.1581 µM,0.317
same,relative viability,[17]; first compound 0.5 µM,0.206
same,relative viability,[18]; first compound 0.005 µM,0.149
same,relative viability,[18]; first compound 0.01581 µM,0.119
same,relative viability,[18]; first compound 0.05 µM,0.0834
same,relative viability,[18]; first compound 0.1581 µM,0.0612
same,relative viability,[18]; first compound 0.5 µM,0.0652
same,relative viability,[19]; first compound 0.005 µM,0.245
same,relative viability,[19]; first compound 0.01581 µM,0.232
same,relative viability,[19]; first compound 0.05 µM,0.178
same,relative viability,[19]; first compound 0.1581 µM,0.117
same,relative viability,[19]; first compound 0.5 µM,0.112
same,relative viability,[20]; first compound 0.005 µM,0.302
same,relative viability,[20]; first compound 0.01581 µM,0.288
same,relative viability,[20]; first compound 0.05 µM,0.242
same,relative viability,[20]; first compound 0.1581 µM,0.233
same,relative viability,[20]; first compound 0.5 µM,0.168
same,relative viability,[21]; first compound 0.005 µM,0.559
same,relative viability,[21]; first compound 0.01581 µM,0.628
same,relative viability,[21]; first compound 0.05 µM,0.469
same,relative viability,[21]; first compound 0.1581 µM,0.446
same,relative viability,[21]; first compound 0.5 µM,0.423
